What was measured:
Plasmopara viticola [1] = test: Antisporulant activity against vine downy mildew (PVA); type: in vivo; details: vine leaves, antisporulant foliar spray, 600 ppm, 750 l/ha
In short: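 Cabernet Sauvignon vines (~8 cm) inoculated on lower leaf surfaces with 5×10^4 zoosporangia/ml, held 24 h at 21° C high humidity then 24 h glasshouse. Infected leaves sprayed underside with 600 ppm compound in 1:1 water/acetone, 0.04% Tween 20, 750 l/ha; 96 h glasshouse, 24 h humidity. Sporulating leaf area rated versus control.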

Leptosphaeria nodorum = test: Activity against wheat leafspot (LN); type: in vivo; details: direct therapeutic foliar spray, 600 ppm, 6-8 days
In short: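 Therapeutic foliar spray: compound at 600 ppm applied to single-leaf wheat (cv Norman) 24 h after inoculation with 1.5×10^6 conidia/ml. Disease control scored after 6-8 days at 22° C and 70% humidity as lesions per leaf versus untreated or diluent-sprayed controls.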

Pyricularia oryzae [2] = type: in vivo; details: rice seedlings, direct therapeutic foliar spray, 600 ppm, 4-5 days
Phytophthora infestans = type: in vivo; details: tomato, direct protectant foliar spray
Rhizoctonia solani = test: Activity against Rhizoctonia in-vitro (RSI); type: cell-based; details: 10 ppm, 10 days, 20° C., mycelial growth
In short: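 Compound at a final 10 ppm (acetone vehicle) in half-strength PDB, inoculated with 5×10^4 fragments/ml of shaken-culture R. solani mycelium. After incubation at 20° C for 10 days, growth scored as a rating versus untreated or diluent-treated controls.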

Alternaria solani [3] = test: Activity against tomato early blight (AS); type: in vivo; details: Table VI; tomato seedlings, contact prophylactic foliar spray, 4 days
In short: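 Plants were challenged with A. solani conidia (10^4 spores/ml) 24 h after a protective foliar spray of compound in 50:50 acetone/water plus 0.04% Tween 20. Held humid at 21° C for 4 days, then percent leaf area with lesions was scored as a rating relative to controls.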

Botrytis cinerea [4] = test: Direct protectant activity against broad bean grey mould (BCB); type: in vivo; details: direct protectant foliar spray, 600 ppm, 4 days
In short: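 Protectant foliar test: lesion coverage assessed 4 days after inoculation and rated relative to untreated or diluent-sprayed plants. Compound applied at 600 ppm to cv The Sutton leaves 24 h before 10^6 conidia/ml suspension; incubation at 22 °C in high humidity.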

[5] = system: Erysiphe graminis f.sp. hordei; test: Direct protectant activity against barley powdery mildew (EGP); type: in vivo; details: direct protectant foliar spray, 8 days
In short: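 Rating reflects percentage of leaf area with sporulation compared with untreated or diluent-sprayed controls. Protectant spray was applied to single-leaf barley (cv Golden Promise) 24 h before conidia inoculation. Plants were kept at 18 °C and 40% RH throughout, with 8 days of disease development.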

[6] = system: Erysiphe graminis f.sp. hordei; test: Activity against barley powdery mildew, direct therapeutic (EGT); type: in vivo; details: direct therapeutic foliar spray, 600 ppm, up to 7 days
In short: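 A curative spray at 600 ppm was applied to single-leaf Golden Promise barley inoculated with powdery mildew conidia the previous day. After up to 7 days at 18 °C and 40% humidity, disease control was rated from percent leaf area sporulating relative to untreated or diluent-sprayed controls.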

Venturia inaequalis = test: Activity against apple scab in-vitro (VII); type: cell-based; details: 10 ppm, 10 days, 20° C., mycelial growth
In short: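 V. inaequalis propagules (5×10^4/ml, malt agar-grown) were exposed in half-strength PDB to 10 ppm final test compound delivered in acetone. Growth was scored after incubation for 10 days at 20° C, as a rating relative to untreated or diluent-sprayed controls.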

[7] = system: Pseudocercosporella herpotrichoides; test: Activity against wheat eyespot in-vitro (PHI); type: cell-based; details: 10 ppm, 10 days, 20° C., mycelial growth
In short: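 Mycelial growth was scored after 10 days at 20 °C against untreated or diluent controls. The broth was half-strength potato dextrose, holding 10 ppm test compound (from acetone) and 5×10^4 fragments/ml of the eyespot fungus.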

Botrytis cinerea [8] = test: In vivo fungicidal activity, Pepper Botrytis (PB); details: Table VIa; host plants sprayed; solution of 400 ppm and dilutions; further: ranges in brackets are in %
Plasmopara viticola [9] = test: In vivo fungicidal activity, Grape Downy Mildew (GDM); details: Table VIa; host plants sprayed; solution of 400 ppm and dilutions; further: ranges in brackets are in %
Venturis inaequalis = test: In vivo fungicidal activity, Apple Scab (AS); details: Table VIa; host plants sprayed; solution of 400 ppm and dilutions
[10] = system: Erysiphe graminis f. sp. tritici; test: In vivo fungicidal activity, Wheat Powdery Mildew (WPM); details: Table VIa; host plants sprayed; solution of 400 ppm and dilutions
Septoria nodorum = test: In vivo fungicidal activity, Wheat Blotch (WSN); details: Table VIa; host plants sprayed; solution of 400 ppm and dilutions
Experimental: Test compounds are dissolved in acetone and diluted with deionized water containing about 0.05% TWEEN 20®, a polyoxyethylene sorbitan monolaurate surfactant manufactured by Atlas Chemical Industries, to give a concentration of 400 ppm. Subsequent dilutions are made with an 0.05% aqueous solution of TWEEN 20®.
Host plants are sprayed with test solution, dried and inoculated with fungi. When disease symptom development is optimal, the plants are rated for disease control according to the rating scale shown below. Each test contains inoculated treated plants, inoculated untreated plants and a reference standard. When more than one test is run, the data are averaged.

Pyricularia oryzae [11] = type: in vivo; details: Table VIa; host plants sprayed; solution of 400 ppm and dilutions
Alternaria solani [12] = test: In vivo fungicidal activity, Tomato Early Blight (TEB); details: Table VIa; host plants sprayed; solution of 400 ppm and dilutions; further: ranges in brackets are in %
Cercospora beticola = test: In vivo fungicidal activity, Sugar Beet Cercospora (SBC); details: Table VIa; host plants sprayed; solution of 400 ppm and dilutions; further: ranges in brackets are in %

CCCCCCNCC1COC2(CCC(C(C)(C)C)CC2)C1 (stereo not shown) [Compound 184, 8-t-butyl-3-n-hexylaminomethyl-1-oxaspiro(4,5)decane]
disease control rating PVA (Plasmopara viticola [1]): 0 (less than 50% disease control) | disease control rating LN (Leptosphaeria nodorum): 0 (less than 50% disease control) | disease control rating PO (Pyricularia oryzae [2]): 0 (less than 50% disease control) | disease control rating PIP (Phytophthora infestans): 0 (less than 50% disease control) | disease control rating RSI (Rhizoctonia solani): 2 (greater than 80% disease control) | disease control rating AS (Alternaria solani [3]): 0 (less than 50% disease control) | disease control rating BCB (Botrytis cinerea [4]): 2 (greater than 80% disease control) | disease control rating EGP [5]: 2 (greater than 80% disease control) | disease control rating EGT [6]: 2 (greater than 80% disease control) | disease control rating VII (Venturia inaequalis): 2 (greater than 80% disease control) | disease control rating PHI [7]: 1 (about 50-80% disease control)

CC(C)(C)C1CCC2(CC1)CC(CNC1CCCCC1)CO2 (stereo not shown) [Compound 185]
disease control rating PVA (Plasmopara viticola [1]): 0 (less than 50% disease control) | disease control rating LN (Leptosphaeria nodorum): 0 (less than 50% disease control) | disease control rating PO (Pyricularia oryzae [2]): 0 (less than 50% disease control) | disease control rating PIP (Phytophthora infestans): 0 (less than 50% disease control) | disease control rating RSI (Rhizoctonia solani): 0 (less than 50% disease control) | disease control rating AS (Alternaria solani [3]): 1 (about 50-80% disease control) | disease control rating BCB (Botrytis cinerea [4]): 1 (about 50-80% disease control) | disease control rating EGP [5]: 2 (greater than 80% disease control) | disease control rating EGT [6]: 2 (greater than 80% disease control) | disease control rating VII (Venturia inaequalis): 0 (less than 50% disease control) | disease control rating PHI [7]: 0 (less than 50% disease control)

CC(C)CN(CC(C)C)CC1COC2(CCC(C(C)(C)C)CC2)C1 (stereo not shown) [Compound 186]
disease control rating PVA (Plasmopara viticola [1]): 0 (less than 50% disease control) | disease control rating LN (Leptosphaeria nodorum): 0 (less than 50% disease control) | disease control rating PO (Pyricularia oryzae [2]): 0 (less than 50% disease control) | disease control rating PIP (Phytophthora infestans): 0 (less than 50% disease control) | disease control rating RSI (Rhizoctonia solani): 0 (less than 50% disease control) | disease control rating AS (Alternaria solani [3]): 0 (less than 50% disease control) | disease control rating BCB (Botrytis cinerea [4]): 0 (less than 50% disease control) | disease control rating EGP [5]: 2 (greater than 80% disease control) | disease control rating EGT [6]: 0 (less than 50% disease control) | disease control rating VII (Venturia inaequalis): 0 (less than 50% disease control) | disease control rating PHI [7]: 0 (less than 50% disease control)

CN(CC1COC2(CCC(C(C)(C)C)CC2)C1)C1CCCCC1 (stereo not shown) [Compound 187]
disease control rating PB (Botrytis cinerea [8]): 7 (90-95) | disease control rating GDM (Plasmopara viticola [9]): 5 (60-74) | disease control rating AS (Apple Scab) (Venturis inaequalis): 4 (45-59) | disease control rating WPM [10]: 9 (100) | disease control rating WSN (Septoria nodorum): 7 (90-95) | disease control rating RB (Pyricularia oryzae [11]): 0 (0) | disease control rating TEB (Alternaria solani [12]): 6 (75-89) | disease control rating SBC (Cercospora beticola): 5 (60-74)

CCN(CC1COC2(CCC(C(C)(C)C)CC2)C1)C1CCCCC1 (stereo not shown) [Compound 188]
disease control rating PB (Botrytis cinerea [8]): 5 (60-74) | disease control rating GDM (Plasmopara viticola [9]): 0 (0) | disease control rating AS (Apple Scab) (Venturis inaequalis): 5 (60-74) | disease control rating WPM [10]: 8 (96-99) | disease control rating WSN (Septoria nodorum): 6 (75-89) | disease control rating RB (Pyricularia oryzae [11]): 0 (0) | disease control rating TEB (Alternaria solani [12]): 0 (0) | disease control rating SBC (Cercospora beticola): 4 (45-59)

CC(C)(C)C1CCC2(CC1)CC(CCNC1CCCCC1)CO2 (stereo not shown) [Compound 189, 8-t-Butyl-3-cyclohexylaminoethyl-1-oxaspiro(4,5)decane]
disease control rating PVA (Plasmopara viticola [1]): 0 (less than 50% disease control) | disease control rating LN (Leptosphaeria nodorum): 0 (less than 50% disease control) | disease control rating PO (Pyricularia oryzae [2]): 0 (less than 50% disease control) | disease control rating PIP (Phytophthora infestans): 1 (about 50-80% disease control) | disease control rating RSI (Rhizoctonia solani): 0 (less than 50% disease control) | disease control rating AS (Alternaria solani [3]): 0 (less than 50% disease control) | disease control rating BCB (Botrytis cinerea [4]): 0 (less than 50% disease control) | disease control rating EGP [5]: 2 (greater than 80% disease control) | disease control rating EGT [6]: 2 (greater than 80% disease control) | disease control rating VII (Venturia inaequalis): 1 (about 50-80% disease control) | disease control rating PHI [7]: 0 (less than 50% disease control)

CC(C)(C)C1CCC2(CC1)CC(CCN)CO2.Cl (stereo not shown) [Compound 190, 8-t-butyl-3-aminoethyl-1-oxaspiro(4,5)decane hydrochloride]
disease control rating PVA (Plasmopara viticola [1]): 1 (about 50-80% disease control) | disease control rating LN (Leptosphaeria nodorum): 0 (less than 50% disease control) | disease control rating PO (Pyricularia oryzae [2]): 0 (less than 50% disease control) | disease control rating PIP (Phytophthora infestans): 2 (greater than 80% disease control) | disease control rating RSI (Rhizoctonia solani): 0 (less than 50% disease control) | disease control rating AS (Alternaria solani [3]): 0 (less than 50% disease control) | disease control rating BCB (Botrytis cinerea [4]): 0 (less than 50% disease control) | disease control rating EGP [5]: 1 (about 50-80% disease control) | disease control rating EGT [6]: 0 (less than 50% disease control) | disease control rating VII (Venturia inaequalis): 0 (less than 50% disease control) | disease control rating PHI [7]: 0 (less than 50% disease control)

CN(C)CCC1COC2(CCC(C(C)(C)C)CC2)C1 (stereo not shown) [Compound 191]
disease control rating PVA (Plasmopara viticola [1]): 0 (less than 50% disease control) | disease control rating LN (Leptosphaeria nodorum): 0 (less than 50% disease control) | disease control rating PO (Pyricularia oryzae [2]): 0 (less than 50% disease control) | disease control rating PIP (Phytophthora infestans): 0 (less than 50% disease control) | disease control rating RSI (Rhizoctonia solani): 0 (less than 50% disease control) | disease control rating AS (Alternaria solani [3]): 0 (less than 50% disease control) | disease control rating BCB (Botrytis cinerea [4]): 0 (less than 50% disease control) | disease control rating EGP [5]: 2 (greater than 80% disease control) | disease control rating EGT [6]: 0 (less than 50% disease control) | disease control rating VII (Venturia inaequalis): 0 (less than 50% disease control) | disease control rating PHI [7]: 0 (less than 50% disease control)

CC1CCCC(NCCC2COC3(CCC(C(C)(C)C)CC3)C2)C1 (stereo not shown) [Compound 192]
disease control rating PB (Botrytis cinerea [8]): 8 (96-99) | disease control rating GDM (Plasmopara viticola [9]): 6 (75-89) | disease control rating AS (Apple Scab) (Venturis inaequalis): 7 (90-95) | disease control rating WPM [10]: 7 (90-95) | disease control rating WSN (Septoria nodorum): 7 (90-95) | disease control rating RB (Pyricularia oryzae [11]): 0 (0) | disease control rating TEB (Alternaria solani [12]): 4 (45-59) | disease control rating SBC (Cercospora beticola): 7 (90-95)

CCCC(CCC)NCCC1COC2(CCC(C(C)(C)C)CC2)C1 (stereo not shown) [Compound 193]
disease control rating PB (Botrytis cinerea [8]): 7 (90-95) | disease control rating GDM (Plasmopara viticola [9]): 8 (96-99) | disease control rating AS (Apple Scab) (Venturis inaequalis): 6 (75-89) | disease control rating WPM [10]: 8 (96-99) | disease control rating WSN (Septoria nodorum): 3 (30-44) | disease control rating RB (Pyricularia oryzae [11]): 0 (0) | disease control rating TEB (Alternaria solani [12]): 2 (15-29) | disease control rating SBC (Cercospora beticola): 6 (75-89)

CCCCCC(C)NCCC1COC2(CCC(C(C)(C)C)CC2)C1 (stereo not shown) [Compound 194]
disease control rating PB (Botrytis cinerea [8]): 4 (45-59) | disease control rating GDM (Plasmopara viticola [9]): 7 (90-95) | disease control rating AS (Apple Scab) (Venturis inaequalis): 6 (75-89) | disease control rating WPM [10]: 7 (90-95) | disease control rating WSN (Septoria nodorum): 7 (90-95) | disease control rating RB (Pyricularia oryzae [11]): 0 (0) | disease control rating TEB (Alternaria solani [12]): 3 (30-44) | disease control rating SBC (Cercospora beticola): 8 (96-99)
